From article PMC7355546, “Lignans, Amides, and Saponins from Haplophyllum tuberculatum and Their Antiprotozoal Activity” (Molecules, 2020)
Values joined by “and” are separate entries in the source; they are usually repeats but may differ in a detail not shown here. Equal entries are not always repeated. Where two headings read alike, the source gives them in different places.

Experiments:
P. falciparum (NF54) = assay: Activity against Plasmodium falciparum erythrocytic stages (3H-hypoxanthine incorporation); assay type: cell-based; conditions: for P. falciparum SI (selectivity index): IC50 in L6 cells divided by IC50 in P. falciparum
[1] = system: T. b. rhodesiense (STIB 900) bloodstream forms; assay: Activity against Trypanosoma brucei rhodesiense bloodstream forms (resazurin); assay type: cell-based; conditions: for T. b. rhodesiense SI (selectivity index): IC50 in L6 cells divided by IC50 in T. b. rhodesiense; for IC50: read-out: T. b. rhodesiense IC50; for activity against T. b. rhodesiense (in words): STIB 900
Experimental: The stock was originally isolated from a patient and adapted to axenic culture conditions after several mouse passages and cloned. Minimum Essential Medium (50 µL) supplemented with 25 mM HEPES, 1 g/L additional glucose, 1% MEM non-essential amino acids (100×), 0.2 mM 2-mercaptoethanol, 1mM Na-pyruvate and 15% heat inactivated horse serum was added to each well of a 96-well microtiter plate. […] Then 4 × 10^3 bloodstream forms of T. b. rhodesiense STIB 900 in 50 µL were added to each well and the plate incubated at 37 °C under a 5% CO2 atmosphere for 70 h. […] Melarsoprol (Arsobal Sanofi-Aventis, received from WHO) was used as control.

[2] = In vitro cytotoxicity with L-6 cells (resazurin); assay type: cell-based; conditions: unit inferred, the other IC50 columns are µM, read-out: L6 Cells (cytotoxicity IC50)
Experimental: Assays were performed in 96-well microtiter plates, each well containing 100 μL of RPMI 1640 medium supplemented with 1% L-glutamine (200 mM) and 10% fetal bovine serum, and 4000 L-6 cells (a primary cell line derived from rat skeletal myoblasts). […] 10 μL of resazurin was then added to each well and the plates incubated for another 2 h. […] Podophyllotoxin (Sigma P4405) was used as control.

[3] = system: L. donovani intracellular amastigotes in mouse peritoneal macrophages; assay: Activity against Leishmania donovani intramacrophage amastigotes; assay type: cell-based; conditions: tested up to 30 μM
Experimental: Mouse peritoneal macrophages (4 × 10^4 in 100 µL RPMI 1640 medium with 10% heat-inactivated FBS) were seeded into wells of a 96-well plate. After 24 h, 100 µL of 2 × 10^5 amastigote Leishmania donovani were added. The amastigotes were taken from an axenic amastigote culture grown at pH 5.4. The medium containing free amastigote forms was removed after 24 h and replaced with fresh medium. The washing step was repeated and afterwards the serial drug dilution was prepared with at least 6 dilution steps. Compound was dissolved in DMSO at 10 mg/mL and further diluted in medium. After incubation for 96 h at 37 °C under a 5% CO2 atmosphere, the medium was removed and cells were fixed by adding 50 µL 4% formaldehyde solution followed by a staining with a 5 µM DRAQ5 solution. Plates were imaged in ImageXpress XLS (MD) microscope using a 20× air objective (635 nm excitation: 690/50 emission). Nine images were collected per well. Automated image analysis was performed with a script developed on Meta Xpress Software (MD). Three outputs were provided for each well: (i) number of host cell nuclei; (ii) numbers of infected and non-infected host cells; (iii) number of parasite nuclei per infected host cell. The IC50 values were calculated based on the infection rate and the numbers of intracellular amastigotes. Miltefosine was used as control.

[4] = system: L. donovani promastigote form; design: method as in PMID 18688887; conditions: cited from earlier work
P. falciparum = conditions: cited from earlier work
trypanosomes = conditions: cited from earlier work
[5] = Plasmodium falciparum, NF54, NF54, mean of at least two independent replicates ± absolute deviation, read-out: P. falciparum IC50
[6] = Trypanosoma brucei, STIB 900 bloodstream forms, mean of at least two independent replicates ± absolute deviation
[7] = NF54, mean of at least two independent replicates ± absolute deviation, read-out: P. falciparum IC50
[8] = L-6 cells (rat skeletal myoblasts)
[9] = STIB 900 bloodstream forms, mean of at least two independent replicates ± absolute deviation

## COc1cc([C@H]2O[C@@H](c3ccc(O)c(OC)c3)[C@@H](C)[C@H]2C)ccc1O [Compound 1, tetrahydrofuroguaiacin B]
P. falciparum (NF54)
  P. falciparum SI (selectivity index): 1.8
P. falciparum (NF54); [5]
  IC50: 53.1 ± 2 µM
[1]
  T. b. rhodesiense SI (selectivity index): 1.6
[1]; [6]
  IC50: 59.4 ± 2.5 µM
[2]; rat skeletal myoblasts
  IC50 at 72 h: 95.2 ± 9.3 µM

## COc1cc([C@H]2O[C@@H](c3ccc(O)c(OC)c3)[C@H](C)[C@@H]2C)ccc1O [Compound 2, nectandrin B]
P. falciparum (NF54)
  P. falciparum SI (selectivity index): 12.1
P. falciparum (NF54); [7]
  IC50: 9.5 ± 0.1 µM
P. falciparum (NF54); [5]
  IC50: 9 to 9.5 µM
[1]
  T. b. rhodesiense SI (selectivity index): 2.4
[1]; [6]
  IC50: 48.3 ± 1.3 µM
[2]; rat skeletal myoblasts
  IC50 at 72 h: 115 ± 2.6 µM
[3]; Leishmania donovani, Peritoneal macrophage, read-out: activity against L. donovani in the intracellular amastigote assay
  IC50: > 30 µM
[3]
  activity against L. donovani in the intracellular amastigote assay: not reproduced
[4]
  activity against L. donovani promastigotes (in words): inactive

## COc1cc([C@H]2O[C@H](c3cc(OC)c(O)c(OC)c3)[C@@H](C)[C@@H]2C)cc(OC)c1O [Compound 3, fragransin B2]
P. falciparum (NF54)
  P. falciparum SI (selectivity index): 4.7
P. falciparum (NF54); [5]
  IC50: 36.1 ± 1 µM
[1]
  T. b. rhodesiense SI (selectivity index): 3.6
[1]; [6]
  IC50: 47.5 ± 4.5 µM

## COc1cc([C@H]2O[C@@H](c3cc(OC)c(O)c(OC)c3)[C@@H](C)[C@@H]2C)cc(OC)c1O [Compound 4, fragransin B1]
P. falciparum (NF54)
  P. falciparum SI (selectivity index): 8.0
P. falciparum (NF54); [7]
  IC50: 17.4 ± 2.1 µM
P. falciparum (NF54); [5]
  IC50: 17 µM
[1]
  T. b. rhodesiense SI (selectivity index): 3.4
[1]; [6]
  IC50: 40.7 ± 0.4 µM
[2]; [8]
  IC50 at 72 h: 163 ± 4.5 µM

## COc1cc(CCC(=O)NCCc2ccc(O)cc2)ccc1O [Compound 5, dihydro-feruloyltyramine]
P. falciparum (NF54); NF54
  activity against P. falciparum (in words): least active
P. falciparum (NF54); [5]
  IC50: 159 µM
[1]
  activity against T. b. rhodesiense (in words): least active
[1]; [6]
  IC50: 206 ± 66.7 µM
[2]; [8]
  IC50 at 72 h: > 318 µM

## COc1cc(/C=C/C(=O)NCCc2ccc(O)cc2)ccc1O [Compound 6, (E)-N-feruloyltyramine]
P. falciparum (NF54)
  P. falciparum SI (selectivity index): 3.6
P. falciparum (NF54); [5]
  IC50: 68.4 ± 3.8 µM
[1]
  T. b. rhodesiense SI (selectivity index): 2.0
  activity against T. b. rhodesiense (in words): least active
[1]; [6]
  IC50: 121 ± 36.9 µM
[2]; rat skeletal myoblasts
  IC50 at 72 h: 247 ± 3.7 µM

## COc1cc(C(=O)/C(C)=C(/C)C(=O)c2ccc(O)c(OC)c2)ccc1O [Compound 7, furoguaiaoxidin]
P. falciparum (NF54); [5]
  IC50: 48.1 ± 10.9 µM
[1]; [6]
  IC50: 114 µM
[2]; [8]
  IC50 at 72 h: > 281 µM

## COc1cc(/C=C/C(=O)NCCCCNC(=O)/C=C/c2ccc(O)c(OC)c2)ccc1O [Compound 8, N,N′-diferuloylputrescine]
P. falciparum (NF54)
  P. falciparum SI (selectivity index): 4.8
P. falciparum (NF54); [5]
  IC50: 30.6 ± 8.3 µM
[1]
  T. b. rhodesiense SI (selectivity index): 8 and 7.8
[1]; [9]
  IC50: 18.9 ± 8.4 µM
[1]; [6]
  IC50: 19 µM
[2]; [8]
  IC50 at 72 h: 146 ± 18.8 µM

## CCOC(CNC(=O)/C=C/c1ccc(O)c(OC)c1)c1ccc(O)cc1 (centres unmarked) [Compound 9, 7′-ethoxy-feruloyltyramine]
P. falciparum (NF54)
  P. falciparum SI (selectivity index): 6.8
P. falciparum (NF54); [5]
  IC50: 30.4 ± 8 µM
[1]
  T. b. rhodesiense SI (selectivity index): 2.9
[1]; [6]
  IC50: 72.7 ± 30.4 µM
[2]; [8]
  IC50 at 72 h: 208 ± 21.6 µM

## COc1cc(CC(C)C(CO)Cc2ccc(O)c(OC)c2)ccc1O (centres unmarked) [Compound 10, 3,3′-dimethoxy-4,4′-dihydroxylignan-9-ol]
P. falciparum (NF54)
  P. falciparum SI (selectivity index): 13.7
P. falciparum (NF54); NF54
  activity against P. falciparum (in words): selectively active
P. falciparum (NF54); [7]
  IC50: 9.3 ± 1.3 µM
P. falciparum (NF54); [5]
  IC50: 9 to 9.5 µM
[1]
  T. b. rhodesiense SI (selectivity index): 5 and 4.6
[1]; [9]
  IC50: 27.5 ± 8.4 µM
[1]; [6]
  IC50: 28 µM
[2]; [8]
  IC50 at 72 h: 128 ± 3.9 µM

## COc1cc2c(OC)c3c(c(-c4ccc5c(c4)OCO5)c2cc1OC)C(=O)OC3 [Justicidin A]
P. falciparum
  activity against P. falciparum (in words): active

## COc1cc2cc3c(c(-c4ccc5c(c4)OCO5)c2cc1OC)C(=O)CO3 [Justicidin B]
trypanosomes
  trypanocidal activity (in words): showed trypanocidal activity

## CCN(CC)CCCC(C)Nc1ccnc2cc(Cl)ccc12 (centres unmarked) [chloroquine, reference compound]
P. falciparum (NF54); Plasmodium falciparum, NF54, read-out: P. falciparum IC50
  IC50: 0.01 µM

## Nc1nc(N)nc(Nc2ccc([As]3SCC(CO)S3)cc2)n1 (centres unmarked) [melarsoprol, reference compound]
[1]; Trypanosoma brucei
  IC50: 0.01 µM

## COc1cc([C@@H]2c3cc4c(cc3[C@H](O)[C@H]3COC(=O)[C@H]23)OCO4)cc(OC)c1OC [podophyllotoxin, reference compound]
[2]; rat skeletal myoblasts
  IC50 at 72 h: 0.03 µM
